Values after ≈ are worked out from the molar mass of the structure shown. Active and inactive are the calls of the source. The calls are words filed in the database; no cut-off is given here.
How the values were obtained:
P388 [1] = assay: Tested for in vivo antileukemic activity of compound against P388 at 12.5 mg/kg dose; NA means Not Active; type: functional, organism-based; set-up: dose 12.5 mg/kg; settings: Mus musculus
[2] = Tested for in vitro cytotoxic potency of compound in 9KB assay; type: cell-based; settings: human, KB (9KB) cells; read-out: ED50 (the source's name)
P388 [3] = assay: Tested for in vivo antileukemic activity of compound against P388 at 50 mg/kg dose; NA means Not Active; type: functional, organism-based; set-up: dose 50 mg/kg; settings: Mus musculus
P388 [4] = assay: Tested for in vivo antileukemic activity of compound against P388 at 25 mg/kg dose; NA means Not Active; type: functional, organism-based; set-up: dose 25 mg/kg; settings: Mus musculus

In the case of COc1ccc2c(c1)[C@@]1(C)CC[C@@H](O2)C12CC2, the ED50 (P388 [1]) is reported as “inactive”, the CC50 [2] is reported as 26 µg/mL (≈ 113 µM) and the ED50 (P388 [3]) is reported as “inactive”. The ED50 (P388 [4]) was “inactive”.

— ChEMBL document CHEMBL1121533, “Synthesis of 8-methoxy-15,16-dinor-6,8,10-trichothecatriene 12,13 alpha-epoxide and 12,13 beta-epoxide as potential antineoplastic agents” (J Med Chem, 1980)
